Data published in patent publication US20180360799A1, “Nitrofuran Derivatives That Induce Apoptosis in Breast Cancer Cells by Activating Protein Expression” (Oklahoma Medical Research Foundation, priority 2015, published 2018).

Legend:
caspase-3 = experiment: Caspase-3 cleavage by Western blotting in HCC-1806 cells; format: cell-based, human; details: HCC-1806, 10 μM, at 8 h and 24 h
Description: FIG. 2A is an image showing apoptosis of HCC-1806 cells after treatment with a 5-nitrofuran-2-amide derivative compound 3d (above). Cells were treated with 3d (10 μM) for the indicated times, and cleavage of caspase-3 was determined by Western blotting. α-Tubulin was used as a loading control. The data shown are representative of 3 independent studies. FIGS. 2B and 2C are live-cell phase-contrast images (magnification 10×) showing treatment with DMSO and (10 μM) 5-nitrofuran-2-amide derivative compound 3d respectively for 24 h. To determine whether the reduction in TNBC cell viability by the 5-nitrofuran-2-amide derivatives was due to the induction of apoptosis, the inventor analyzed cleavage of caspase-3, a critical executioner of apoptosis, in HCC-1806 cells treated with compound 3d. […] To confirm this, HCC-1806 cells were cultured to near confluence and treated with 10 μM 3d or DMSO for 24 h and then imaged by live-cell phase-contrast microscopy.
HCC-1806 cells were seeded in 60-mm dishes at 8×10^5 cells/dish and treated for the indicated times. Cells were then washed with PBS and lysed with lysis buffer (Cell Signaling Technology, Danvers, Mass., US) containing EDTA and phosphatase inhibitors. Aliquots of 20 μg total protein were separated on 7% SDS-PAGE gels (Life Technologies, Carlsbad, Calif., US) and transferred to PVDF membranes. […]

[1] = system: XBP1 mRNA splicing (IRE1α pathway); experiment: XBP1 mRNA splicing by RT-PCR in HCC-1806 cells; format: cell-based, human; details: HCC-1806, 3d 10 μM, at 2~24 h (11% at 0 h)
Description: FIG. 3E is a graph showing XBP1 mRNA levels in HCC-1806 cells treated with tunicamycin or a 5-nitrofuran-2-amide derivative compound 3d. HCC-1806 cells were treated with compound 3d (10 μM) or tunicamycin (Tm, 1 μg/mL) for the indicated times. XBP1 mRNA levels were analyzed by RT-PCR and the products were resolved by agarose gel electrophoresis. The full-length (unspliced, XBP1u) and spliced (XBP1s) forms of XBP1 mRNA are indicated. GAPDH mRNA was used as an internal control.
The percentage of XBP1s relative to total XBP1 was calculated as: (XBP1s/[XBP1s+XBP1u])×100%. The data shown are representative of 3 independent studies.
The inventor next asked whether the IRE1α and ATF6 branches of the unfolded protein response were also activated by compound 3d treatment of TNBC cells. […] XBP1 mRNA splicing, as measured by XBP1s levels, increased only slightly in the first 24 h after compound 3d treatment of HCC-1806 cells (from 11% of total XBP1 at 0 h to 15˜20% at 2˜24 h). […] Next, it was determined whether compound 3d activates the ATF6 pathway by evaluating its effect on the activity of an ER stress response elements (ERSE)-Luc reporter stably established in HEK293 cell line. […]

HCC-1806 cells = experiment: Cell viability, CellTiter-Glo, HCC-1806; format: cell-based; details: Homo sapiens, HCC1806, 72 h; Table 2; cancer cell viability, 3 d treatment; read-out: HCC-1806 IC50
Description: Given the known functions of CHOP in ER stress-induced apoptosis^16, 17 and in regulating cancer cell death,^6, 19, 20 the inventor investigated whether compound 1 affects the viability of TNBC cells. Three human TNBC cell lines, HCC-1806, HCC-1143, and HCC-38, were treated with doses of 1 ranging from 0.125 μM to 20 μM and their viability was assessed using the CellTiter-Glo assay, which measures intracellular ATP levels.
HCC-1806, HCC-1143, or HCC-38 cells were seeded at 3×10^3 cells/well in a 384-well plate and treated with compounds at the indicated concentrations. After 3 d treatment, the medium was aspirated and 20 μL/well of CellTiter-Glo reagent was added. Cell viability was measured with an EnVision multilabel plate reader. The IC50 value for cell viability of each compound was calculated with GraphPad Prism (La Jolla, Calif., US).

`CC1CCN(c2ccc(NC(=O)c3ccc([N+](=O)[O-])o3)cc2)CC1` [Compound 3d] was tested, and the “cleavage of caspase-3” value (caspase-3) was “increased cleavage of caspase-3 protein levels”, the “XBP1s, percentage of total XBP1” value [1] was 15˜20% and the IC50 (HCC-1806 cells) was 2800 nM.
